Patent US10072011B2, “Substituted bridged urea analogs as sirtuin modulators” (GlaxoSmithKline Intellectual Property (No.2) Limited, priority 2014, dated 2018)
Where two headings read alike, the source gives them in different places.

Target: T1, SIRT1 (Homo sapiens, UniProt Q96EB6)
T1 sequence (Q96EB6 1-747): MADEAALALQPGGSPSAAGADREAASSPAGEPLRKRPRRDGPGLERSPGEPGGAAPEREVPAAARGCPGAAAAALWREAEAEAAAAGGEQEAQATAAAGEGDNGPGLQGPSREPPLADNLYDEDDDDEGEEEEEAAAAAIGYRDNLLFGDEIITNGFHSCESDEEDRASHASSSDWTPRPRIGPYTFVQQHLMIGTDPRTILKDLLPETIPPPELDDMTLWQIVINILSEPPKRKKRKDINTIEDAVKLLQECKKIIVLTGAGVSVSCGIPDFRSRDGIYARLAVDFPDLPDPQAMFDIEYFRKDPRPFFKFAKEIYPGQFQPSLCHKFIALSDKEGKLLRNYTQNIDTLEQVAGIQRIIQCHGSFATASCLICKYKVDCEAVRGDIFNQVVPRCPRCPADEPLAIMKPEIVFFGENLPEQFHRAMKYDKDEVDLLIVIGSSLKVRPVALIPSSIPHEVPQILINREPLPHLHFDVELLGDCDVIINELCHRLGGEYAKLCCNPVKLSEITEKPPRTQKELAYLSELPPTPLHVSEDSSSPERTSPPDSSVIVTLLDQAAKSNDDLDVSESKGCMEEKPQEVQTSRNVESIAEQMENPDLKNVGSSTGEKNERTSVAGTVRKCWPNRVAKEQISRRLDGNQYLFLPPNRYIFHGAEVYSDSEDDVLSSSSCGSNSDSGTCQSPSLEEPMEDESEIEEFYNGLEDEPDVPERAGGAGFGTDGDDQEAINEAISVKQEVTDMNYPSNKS
Assay: Trp mass spectrometry assay of SIRT1 activation (Ac-R-H-K-K(Ac)-W-NH2 peptide)
Format: biochemical
Details: for Emax: 25 min, read-out: TRP MAX RESP (percent maximum fold activation)
Method: The Trp mass spectrometry assay was conducted as follows. […] The SIRT1 protein was obtained by cloning the SirT1 gene into a T7-promoter containing vector, which was then expressed in BL21(DE3) bacterial cells and purified as described in further detail below. Test compound was added at varying concentrations to this reaction mixture and the resulting reactions were monitored. After the 25 minute incubation with SIRT1, 10 μL of 10% formic acid was added to stop the reaction. The resulting reactions were sealed and frozen for later mass spec analysis. The relative SIRT1 activity was then determined by measuring the amount of O-acetyl-ADP-ribose (OAADPR) formed (or, alternatively, the amount of deacetylated Trp peptide generated) by the NAD-dependent sirtuin deacetylation reaction in the presence of varying concentrations of the test compound versus control reactions lacking the test compound. The degree to which the test agent activated deacetylation by SIRT1 was expressed as EC1.5 (i.e., the concentration of compound required to increase SIRT1 activity by 50% over the control lacking test compound), and Percent Maximum Activation (i.e., the maximum activity relative to control (100%) obtained for the test compound).
This time point was the same as that used for test compounds and, within the linear range, the endpoint represents a change in velocity.
For the above assay, SIRT1 protein was expressed and purified as follows. The SirT1 gene was cloned into a T7-promoter containing vector and transformed into BL21(DE3). The protein was expressed by induction with 1 mM IPTG as an N-terminal His-tag fusion protein at 18° C. overnight and harvested at 30,000×g. Cells were lysed with lysozyme in lysis buffer (50 mM Tris-HCl, 2 mM Tris[2-carboxyethyl]phosphine (TCEP), 10 μM ZnCl2, 200 mM NaCl) and further treated with sonication for 10 min for complete lysis. The protein was purified over a Ni-NTA column (Amersham) and fractions containing pure protein were pooled, concentrated and run over a sizing column (Sephadex S200 26/60 global). The peak containing soluble protein was collected and run on an Ion-exchange column (MonoQ). Gradient elution (200 mM-500 mM NaCl) yielded pure protein. This protein was concentrated and dialyzed against dialysis buffer (20 mM Tris-HCl, 2 mM TCEP) overnight. The protein was aliquoted and frozen at −80° C. until further use.
“NT” means not tested; “ND” means not determinable.

[1] = Trp peptide 0.5 μM, 120 μM βNAD+, 10 nM SIRT1, 25 min at 25° C., relative to control (100%)
[2] = Trp peptide 0.5 μM, 120 μM βNAD+, 10 nM SIRT1, 25 min at 25° C.

Structure (SMILES)	Emax [1]	TRP Activity (EC1.5, concentration of test compound that results in 150% activation of SIRT1) [2]	Emax
Cc1ccc2c(NC(=O)N3c4nc(C(=O)NCC(N)C(F)(F)F)ccc4N4CC[C@H]3C4)n[nH]c2n1 (single isomer, unassigned) [Example 197]	> 150%	B (EC1.5 1-25 μM)	
O=C(NC[C@H](O)C(F)(F)F)c1ccc2c(n1)N(C(=O)Nc1ccc(F)cn1)[C@H]1CCN2C1 [Example 81, (4S)—N5-(5-fluoropyridin-2-yl)-N7-((S)-3,3,3-trifluoro-2-hydroxypropyl)-3,4-dihydro-1,4-methanopyrido[2,3-b][1,4]diazepine-5,7(2H)-dicarboxamide]	> 150%	A (EC1.5<1 μM)	
O=C(O)CNC(=O)c1ccc2c(n1)N(C(=O)Nc1ccccn1)[C@H]1CCN2C1 [Example 14, 2-((4S)-5-(pyridin-2-ylcarbamoyl)-2,3,4,5-tetrahydro-1,4 methanopyrido[2,3-b][1,4]diazepine-7-carboxamido)acetic acid]	< 150%	C (EC1.5>25 μM)	
Cn1cnc(NC(=O)N2c3nc(C(=O)NCC(F)(F)F)ccc3N3CC[C@H]2C3)cc1=O [Example 120, (4S)—N5-(1-methyl-6-oxo-1,6-dihydropyrimidin-4-yl)-N7-(2,2,2-trifluoroethyl)-3,4-dihydro-1,4-methanopyrido[2,3-b][1,4]diazepine-5,7(2H)-dicarboxamide]	> 150%	B (EC1.5 1-25 μM)	
O=C(c1ccc2c(n1)N(C(=O)Nc1ccccn1)[C@H]1CCN2C1)N1CCC(F)(F)C1 [Example 3, (4S)-7-(3,3-difluoropyrrolidine-1-carbonyl)-N-(pyridin-2-yl)-3,4-dihydro-1,4-methanopyrido[2,3-b] [1, 4] diazepine-5(2H)-carboxamide]	> 150%	B (EC1.5 1-25 μM)	
O=C(N[C@H](CO)C(F)(F)F)c1ccc2c(n1)N(C(=O)Nc1cc(OC[C@H](O)CO)ccn1)[C@H]1CCN2C1 (single isomer, unassigned) [Example 92]	> 150%	A (EC1.5<1 μM)	
CC(C)(C)CNC(=O)c1ccc2c(n1)N(C(=O)Nc1ccccn1)[C@H]1CCN2C1 [Example 15, (4S)—N-7-neopentyl-N-5-(pyridin-2-yl)-3,4-dihydro-1,4-methanopyrido[2,3-b][1,4]diazepine-5,7(2H)-dicarboxamide]	> 150%	A (EC1.5<1 μM)	
C[C@@H](NC(=O)c1ccc2c(n1)N(C(=O)Nc1ccc(F)cn1)[C@H]1CCN2C1)C(F)(F)F [Example 129, (4S)—N5-(5-fluoropyridin-2-yl)-N7-((R)-1,1,1-trifluoropropan-2-yl)-3,4-dihydro-1,4-methanopyrido[2,3-b][1,4]diazepine-5,7(2H)-dicarboxamide]	> 150%	A (EC1.5<1 μM)	
O=C(NCC(F)(F)F)c1ccc2c(n1)N(C(=O)Nc1ncc3cc[nH]c3n1)[C@H]1CCN2C1 [Example 93, (4S)—N5-(7H-pyrrolo[2,3-d]pyrimidin-2-yl)-N7-(2,2,2-trifluoroethyl)-3,4-dihydro-1,4-methanopyrido[2,3-b][1,4]diazepine-5,7(2H)-dicarboxamide]		A (EC1.5<1 μM)	> 150%
C[C@@H](NC(=O)c1ccc2c(n1)N(C(=O)Nc1cccc(OC[C@H](O)CO)n1)[C@H]1CCN2C1)C(F)(F)F [Example 141, (4S)—N5-(6-((R)-2,3-dihydroxypropoxy)pyridin-2-yl)-N7-((R)-1,1,1-trifluoropropan-2-yl)-3,4-dihydro-1,4-methanopyrido[2,3-b][1,4]diazepine-5,7(2H)-dicarboxamide]	> 150%	A (EC1.5<1 μM)	
O=C(NCc1ccccc1)c1ccc2c(n1)N(C(=O)Nc1cc(OC[C@H](O)CO)ccn1)[C@H]1CCN2C1 [Example 171, (4S)—N7-benzyl-N5-(4-((R)-2,3-dihydroxypropoxy)pyridin-2-yl)-3,4-dihydro-1,4-methanopyrido[2,3-b][1,4]diazepine-5,7(2H)-dicarboxamide]	> 150%	A (EC1.5<1 μM)	
CC(NC(=O)c1ccc2c(n1)N(C(=O)Nc1ccccn1)[C@H]1CCN2C1)C1CC1 (single isomer, unassigned) [Example 100]	> 150%	A (EC1.5<1 μM)	

The next lines start with results.

Emax [1]	TRP Activity (EC1.5, concentration of test compound that results in 150% activation of SIRT1) [2]	Structure (SMILES)	Emax
> 150%	B (EC1.5 1-25 μM)	C[C@@H](NC(=O)c1ccc2c(n1)N(C(=O)Nc1ccon1)[C@H]1CCN2C1)C(F)(F)F [Example 251, (4S)—N5-(isoxazol-3-yl)-N7-((R)-1,1,1-trifluoropropan-2-yl)-3,4-dihydro-1,4-methanopyrido[2,3-b][1,4]diazepine-5,7(2H)-dicarboxamide]	
> 150%	B (EC1.5 1-25 μM)	C[C@@H](NC(=O)c1ccc2c(n1)N(C(=O)Nc1cc(C(=O)O)ccn1)[C@H]1CCN2C1)C(F)(F)F [Example 225, 2-((4S)-7-(((R)-1,1,1-trifluoropropan-2-yl)carbamoyl)-2,3,4,5-tetrahydro-1,4-methanopyrido[2,3-b][1,4]diazepine-5-carboxamido)isonicotinic acid]	
> 150%	B (EC1.5 1-25 μM)	O=C(N[C@@H]1CC1(F)F)c1ccc2c(n1)N(C(=O)Nc1cnc(OC[C@H](O)CO)cn1)[C@H]1CCN2C1 (single isomer, unassigned) [Example 260]	
< 150%	A (EC1.5<1 μM)	C[C@@H](NC(=O)c1ccc2c(n1)N(C(=O)Nc1cc(-c3cnc(C4CC4)s3)ccn1)[C@H]1CCN2C1)C(F)(F)F [Example 325, (4S)—N5-(4-(2-cyclopropylthiazol-5-yl)pyridin-2-yl)-N7-((R)-1,1,1-trifluoropropan-2-yl)-3,4-dihydro-1,4-methanopyrido[2,3-b][1,4]diazepine-5,7(2H)-dicarboxamide]	
> 150%	B (EC1.5 1-25 μM)	C[C@@H](NC(=O)c1ccc2c(n1)N(C(=O)Nc1cc(OCCN(C)C)ccn1)[C@H]1CCN2C1)C(F)(F)F [Example 268, (4S)—N5-(4-(2-(dimethylamino)ethoxy)pyridin-2-yl)-N7-((R)-1,1,1-trifluoropropan-2-yl)-3,4-dihydro-1,4-methanopyrido[2,3-b][1,4]diazepine-5,7(2H)-dicarboxamide]	
> 150%	B (EC1.5 1-25 μM)	O=C(NC1CC1)c1ccc2c(n1)N(C(=O)Nc1ncccn1)[C@H]1CCN2C1 [Example 204, (4S)—N7-cyclopropyl-N5-(pyrimidin-2-yl)-3,4-dihydro-1,4-methanopyrido[2,3-b][1,4]diazepine-5,7(2H)-dicarboxamide]	
